Measurements taken from patent publication US20080102497A1, “ENZYMATIC HYDROLYSIS OF STARCH” (priority 2006, published 2008).
Values joined by “and” are separate entries in the source; they are usually repeats but may differ in a detail not shown here. Identical values can stand only once.

Key:
Assay type in all cases: biochemical
[1] = biological target: T1, β-amylase Type II-B from barley (Hordeum vulgare, UniProt P16098); experiment: hydrolysis of raw corn starch or soluble starch; conditions: for % Relative Activity: pH 5.3, 37° C., 20 min
T1 construct: purchased Sigma Sigma-7130
Protocol: Each of the buffered enzyme solutions was separately added to 15 mg raw corn starch or 0.6 mg soluble starch, and the reaction mixtures incubated at 37° C. for 20 minutes. The control reaction mixture contained substrate, enzyme, and buffer but no manganese ion. The starch hydrolysis reaction was stopped by combining the reaction mixture with a solution containing DNSA and heating for 30 min at 85° C. The absorbance of the control and test samples was measured at 562 nm to monitor the amount of reducing sugar in each sample.

[2] = biological target: T2, α-amylase from Bacillus licheniformis (Bacillus licheniformis, UniProt P06278); experiment: hydrolysis of cooked dent corn starch; conditions: cooked dent corn starch 0.5%, pH 5.2, 37° C., 10 min
Protocol: (§2) The separate reaction mixtures were incubated at 37° C. for 10 minutes. The control reaction mixtures contained enzyme, buffer, and starch but no manganese ion. The starch hydrolysis reaction was stopped by combining the reaction mixture with a solution containing DNSA and heating for 30 min at 85° C. The absorbance of the control and test samples was measured at 562 nm to monitor the amount of reducing sugar in each sample.

[3] = biological target: T2, α-amylase from Bacillus licheniformis; experiment: hydrolysis of cooked corn starch varieties; conditions: pH 5.2, 37° C., 10 min
Protocol: The separate reaction mixtures were incubated at 37° C. for 10 minutes. The control reaction mixture contained enzyme, buffer, and starch but no manganese ion. The starch hydrolysis reaction was stopped by combining the reaction mixture with a solution containing DNSA and heating for 30 min at 85° C. The absorbance of the control and test samples was measured at 562 nm to monitor the amount of reducing sugar in each sample.

[4] = biological target: α-amylase from Aspergillus oryzae (Aspergillus oryzae, UniProt P0C1B3); experiment: hydrolysis of raw corn starch, reducing sugar by DNSA; conditions: for Relative Activity: raw corn starch, pH 5.3, 37° C., 20 min
From the text: (§1) The α-amylase from Aspergillus oryzae and the glucoamylase from Rhizopus sp.

[5] = test system: glucoamylase from Rhizopus sp.; experiment: as above; conditions: for Relative Activity: raw corn starch, pH 5.3, 37° C., 20 min
From the text: as §1

[6] = test system: glucoamylase from Rhizopus sp.; experiment: hydrolysis of cooked dent corn starch; conditions: cooked dent corn starch 0.5%, pH 5.2, 37° C., 10 min
Protocol: as §2

[7] = test system: glucoamylase from Rhizopus sp.; experiment: pH effect on hydrolysis of raw corn starch; conditions: for Relative Activity: 37° C., 20 min, control at pH 4 = 100
Protocol: Enzyme solutions of the glucoamylase from Rhizopus sp. Were prepared in various pH buffers having a pH of 3, 4, 5, 6, 7, or 8. Thereafter, 40 μl of the buffered enzyme solution and a stock solution containing Mn^++ were added to 6 samples containing 15 mg raw corn starch to provide a reaction mixture containing 1.0 mM Mn^++. The reaction mixtures were incubated at 37° C. for 20 minutes.

[8] = biological target: T3, industrial α-amylase known as Termamyl (Bacillus licheniformis, UniProt P06278); experiment: hydrolysis of cooked dent corn starch; conditions: cooked dent corn starch 0.5%, pH 5.2, 37° C., 10 min
T3 construct: purchased Novozymes
Protocol: as §2

[9] = biological target: T2, α-amylase from Bacillus licheniformis; experiment: hydrolysis of cooked starches from different botanical sources; conditions: pH 5.2, 37° C., 10 min
[10] = biological target: α-amylase from Bacillus amyloliquefaciens (Bacillus amyloliquefaciens, UniProt P00692); experiment: hydrolysis of cooked dent corn starch; conditions: 0.1 mM Mn^++; cooked dent corn starch 0.5%; pH 5.2; 37° C., 10 min
Protocol: as §2

β-amylase from barley = β-amylase from barley (Hordeum vulgare, UniProt P16098); experiment: hydrolysis of cooked starches from different botanical sources; conditions: pH 5.2, 37° C., 10 min
Protocol: The control reaction mixture contained enzyme, buffer, and starch but no manganese ion. The starch hydrolysis reaction was stopped by combining the reaction mixture with 3,5 dinitrosalicylic acid (DNSA) and heating for 30 min at 85° C. The absorbance of the control and test samples was measured at 562 nm to monitor the amount of reducing sugar in each sample.

[11] = 0.01 mM Mn^++, cooked potato starch 0.5%
[12] = 0.01 mM Mn^++, cooked rice starch 0.5%
[13] = 0.01 mM Mn^++, cooked soluble potato starch 0.5%
[14] = 0.1 mM Mn^++, cooked barley starch 0.5%
[15] = 0.1 mM Mn^++, cooked pea starch 0.5%
[16] = 0.1 mM Mn^++, cooked potato starch 0.5%
[17] = 0.1 mM Mn^++, cooked rice starch 0.5%
[18] = 0.1 mM Mn^++, cooked soluble potato starch 0.5%
[19] = 0.1 mM Mn^++, cooked tapioca starch 0.5%
[20] = 0.1 mM Mn^++, cooked wheat starch 0.5%
[21] = 1 mM Mn^++, cooked pea starch 0.5%
[22] = 1 mM Mn^++, cooked potato starch 0.5%
[23] = 1 mM Mn^++, cooked rice starch 0.5%
[24] = 1 mM Mn^++, cooked soluble potato starch 0.5%
[25] = 1 mM Mn^++, cooked tapioca starch 0.5%
[26] = 1 mM Mn^++, cooked wheat starch 0.5%
[27] = 10 mM Mn^++, cooked barley starch 0.5%
[28] = 10 mM Mn^++, cooked pea starch 0.5%
[29] = 10 mM Mn^++, cooked potato starch 0.5%
[30] = 10 mM Mn^++, cooked rice starch 0.5%
[31] = 10 mM Mn^++, cooked wheat starch 0.5%

T1 sequence (P16098 whole entry): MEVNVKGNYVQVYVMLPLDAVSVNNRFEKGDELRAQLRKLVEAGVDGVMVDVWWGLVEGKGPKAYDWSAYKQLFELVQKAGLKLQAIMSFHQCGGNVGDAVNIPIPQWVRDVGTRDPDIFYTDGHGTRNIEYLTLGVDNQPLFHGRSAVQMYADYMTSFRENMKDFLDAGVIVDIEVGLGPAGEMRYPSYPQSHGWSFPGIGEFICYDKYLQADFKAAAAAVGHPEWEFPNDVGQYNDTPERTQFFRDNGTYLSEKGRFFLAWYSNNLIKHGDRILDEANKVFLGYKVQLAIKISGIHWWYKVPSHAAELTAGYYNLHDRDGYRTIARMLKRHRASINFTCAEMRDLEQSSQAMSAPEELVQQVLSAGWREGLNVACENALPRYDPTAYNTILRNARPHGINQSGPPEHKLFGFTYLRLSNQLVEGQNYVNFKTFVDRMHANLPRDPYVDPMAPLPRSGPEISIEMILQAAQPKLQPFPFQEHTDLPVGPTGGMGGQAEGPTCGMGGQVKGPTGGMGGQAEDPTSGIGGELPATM
Chain of β-amylase from barley (P16098 whole entry): as above
T2 sequence (P06278 30-512): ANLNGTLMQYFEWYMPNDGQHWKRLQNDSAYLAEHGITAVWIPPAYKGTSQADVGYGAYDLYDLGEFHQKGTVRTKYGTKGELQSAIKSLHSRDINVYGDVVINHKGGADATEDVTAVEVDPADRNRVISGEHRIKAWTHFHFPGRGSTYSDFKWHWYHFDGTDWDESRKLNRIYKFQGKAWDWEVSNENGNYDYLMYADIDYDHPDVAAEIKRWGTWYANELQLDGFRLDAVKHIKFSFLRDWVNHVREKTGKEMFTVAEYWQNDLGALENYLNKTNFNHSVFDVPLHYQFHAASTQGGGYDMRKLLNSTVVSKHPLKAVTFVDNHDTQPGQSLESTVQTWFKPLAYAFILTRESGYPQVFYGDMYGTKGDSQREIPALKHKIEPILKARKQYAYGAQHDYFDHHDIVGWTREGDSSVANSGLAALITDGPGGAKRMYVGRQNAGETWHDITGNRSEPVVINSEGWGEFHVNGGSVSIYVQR
T3 sequence (P06278 30-512): as above
Chain of α-amylase from Bacillus amyloliquefaciens (P00692 32-514): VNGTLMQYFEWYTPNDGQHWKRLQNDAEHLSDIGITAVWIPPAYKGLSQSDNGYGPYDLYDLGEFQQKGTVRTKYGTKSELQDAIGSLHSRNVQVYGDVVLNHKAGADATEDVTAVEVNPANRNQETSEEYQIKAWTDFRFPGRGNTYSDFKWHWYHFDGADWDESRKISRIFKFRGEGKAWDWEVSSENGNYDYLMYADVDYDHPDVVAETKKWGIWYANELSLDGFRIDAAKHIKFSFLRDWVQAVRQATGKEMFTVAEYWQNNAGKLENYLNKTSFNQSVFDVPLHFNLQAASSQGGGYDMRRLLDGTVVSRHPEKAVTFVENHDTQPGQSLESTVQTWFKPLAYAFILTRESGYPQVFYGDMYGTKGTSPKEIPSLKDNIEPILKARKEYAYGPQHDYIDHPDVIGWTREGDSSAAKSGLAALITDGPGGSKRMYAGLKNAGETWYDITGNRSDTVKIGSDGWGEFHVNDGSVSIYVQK

Compound: [Mn+2] [Mn^++, manganese ions]
- % Relative Activity ([1]; 0.01 mM Mn^++, raw corn starch): 99.5%
- % Relative Activity ([1]; 0.01 mM Mn^++, soluble starch): 112.5%
- % Relative Activity ([1]; 0.1 mM Mn^++, raw corn starch): 118.4%
- % Relative Activity ([1]; 0.1 mM Mn^++, soluble starch): 119.2%
- % Relative Activity ([1]; 1 mM Mn^++, raw corn starch): 133.3%
- % Relative Activity ([1]; 1 mM Mn^++, soluble starch): 155.7%
- % Relative Activity ([1]; 10 mM Mn^++, raw corn starch): 152.2%
- % Relative Activity ([1]; 10 mM Mn^++, soluble starch): 157.3%
- effect on hydrolysis of starch (in words) ([1]; raw corn starch and soluble starch): enhances the hydrolysis of both raw corn starch and soluble starch
- Relative Activity ([2]; 0.1 mM Mn^++): 124.4%
- Relative Activity ([2]; 1 mM Mn^++): 128.7%
- Relative Activity ([2]; 10 mM Mn^++): 147.8%
- Relative Activity ([3]; 0.01 mM Mn^++, cooked high-amylose V corn starch 0.5%): 116.5%
- Relative Activity ([3]; 0.01 mM Mn^++, cooked soluble corn starch 0.5%): 118.3%
- Relative Activity ([3]; 0.01 mM Mn^++, cooked waxy corn starch 0.5%): 118.3%
- Relative Activity ([3]; 0.1 mM Mn^++, cooked dent corn starch 0.5%): 124.4%
- Relative Activity ([3]; 0.1 mM Mn^++, cooked high-amylose V corn starch 0.5%): 135.5%
- Relative Activity ([3]; 0.1 mM Mn^++, cooked soluble corn starch 0.5%): 128.1%
- Relative Activity ([3]; 0.1 mM Mn^++, cooked waxy corn starch 0.5%): 126.9%
- Relative Activity ([3]; 1 mM Mn^++, cooked dent corn starch 0.5%): 128.7%
- Relative Activity ([3]; 1 mM Mn^++, cooked soluble corn starch 0.5%): 135.8%
- Relative Activity ([3]; 10 mM Mn^++, cooked dent corn starch 0.5%): 147.8%
- Relative Activity ([3]; 10 mM Mn^++, cooked high-amylose V corn starch 0.5%): 160.1%
- Relative Activity ([3]; 10 mM Mn^++, cooked soluble corn starch 0.5%): 162.7%
- Relative Activity ([3]; 10 mM Mn^++, cooked waxy corn starch 0.5%): 155.8%
- Relative Activity ([4]; 0.01 mM Mn^++): 106.6%
- Relative Activity ([4]; 0.1 mM Mn^++): 125.5%
- Relative Activity ([4]; 1 mM Mn^++): 136.7%
- Relative Activity ([4]; 10 mM Mn^++): 155.6%
- effect on hydrolysis of raw corn starch (in words) ([4]; summary of Table 3): enhances the hydrolysis of raw corn starch
- Relative Activity ([5]; 0.01 mM Mn^++): 105.0%
- Relative Activity ([5]; 0.1 mM Mn^++): 119.2%
- Relative Activity ([5]; 1 mM Mn^++): 133.5%
- Relative Activity ([5]; 10 mM Mn^++): 162.6%
- effect on hydrolysis of raw corn starch (in words) ([5]; summary of Table 3): enhances the hydrolysis of raw corn starch
- Relative Activity ([6]; 0.01 mM Mn^++): 112.0%
- Relative Activity ([6]; 0.1 mM Mn^++): 123.8%
- Relative Activity ([6]; 1 mM Mn^++): 145.1%
- Relative Activity ([6]; 10 mM Mn^++): 223.5%
- pH of greatest Mn^++-induced activation ([7]; 1.0 mM Mn^++, pH 3-8 tested): 5.0
- Relative Activity ([7]; pH 3, 1.0 mM Mn^++): 98%
- Relative Activity ([7]; pH 4, 1.0 mM Mn^++): 146.7%
- Relative Activity ([7]; pH 5, 1.0 mM Mn^++): 148.6%
- Relative Activity ([7]; pH 6, 1.0 mM Mn^++): 127.8%
- Relative Activity ([7]; pH 7, 1.0 mM Mn^++): 103.1%
- Relative Activity ([7]; pH 8, 1.0 mM Mn^++): 44.3%
- Relative Activity ([8]; 0.01 mM Mn^++): 114.7%
- Relative Activity ([8]; 10 mM Mn^++): 156.3%
- Relative Activity [9, 11]: 109.9%
- Relative Activity [9, 12]: 115.5%
- Relative Activity [9, 13]: 118.3%
- Relative Activity [9, 14]: 129.2%
- Relative Activity [9, 15]: 129.5%
- Relative Activity [9, 16]: 117.5%
- Relative Activity [9, 17]: 126.0%
- Relative Activity [9, 18]: 147.6%
- Relative Activity [9, 19]: 119.2%
- Relative Activity [9, 20]: 118.2%
- Relative Activity [9, 21]: 143.9%
- Relative Activity [9, 22]: 128.7%
- Relative Activity [9, 23]: 129.6%
- Relative Activity [9, 24]: 142.0%
- Relative Activity [9, 25]: 121.5%
- Relative Activity [9, 26]: 153.0%
- Relative Activity [9, 27]: 142.2%
- Relative Activity [9, 28]: 182.3%
- Relative Activity [9, 29]: 160.2%
- Relative Activity [9, 30]: 157.7%
- Relative Activity [9, 31]: 142.1%
- Relative Activity [10]: 121.0% and 120.4%
- Relative Activity (β-amylase from barley; 0.01 mM Mn^++, cooked barley starch 0.5%): 115.2%
- Relative Activity (β-amylase from barley; 0.01 mM Mn^++, cooked pea starch 0.5%): 108.1%
- Relative Activity (β-amylase from barley; [11]): 109.5%
- Relative Activity (β-amylase from barley; [12]): 107.8%
- Relative Activity (β-amylase from barley; [13]): 117.4%
- Relative Activity (β-amylase from barley; 0.01 mM Mn^++, cooked tapioca starch 0.5%): 111.3%
- Relative Activity (β-amylase from barley; 0.01 mM Mn^++, cooked wheat starch 0.5%): 120.2%
- Relative Activity (β-amylase from barley; [14]): 121.1%
- Relative Activity (β-amylase from barley; [15]): 122.3%
- Relative Activity (β-amylase from barley; [16]): 117.5%
- Relative Activity (β-amylase from barley; [17]): 123.9%
- Relative Activity (β-amylase from barley; [18]): 136.0%
- Relative Activity (β-amylase from barley; [19]): 122.1%
- Relative Activity (β-amylase from barley; [20]): 141.9%
- Relative Activity (β-amylase from barley; 1 mM Mn^++, cooked barley starch 0.5%): 154.0%
- Relative Activity (β-amylase from barley; [21]): 139.2%
- Relative Activity (β-amylase from barley; [22]): 135.4%
- Relative Activity (β-amylase from barley; [23]): 138.1%
- Relative Activity (β-amylase from barley; [24]): 154.1%
- Relative Activity (β-amylase from barley; [25]): 135.6%
- Relative Activity (β-amylase from barley; [26]): 151.9%
- Relative Activity (β-amylase from barley; [27]): 197.5%
- Relative Activity (β-amylase from barley; [28]): 253.4%
- Relative Activity (β-amylase from barley; [29]): 175.1%
- Relative Activity (β-amylase from barley; [30]): 173.4%
- Relative Activity (β-amylase from barley; 10 mM Mn^++, cooked soluble potato starch 0.5%): 165.6%
- Relative Activity (β-amylase from barley; 10 mM Mn^++, cooked tapioca starch 0.5%): 180.5%
- Relative Activity (β-amylase from barley; [31]): 221.1%
